Laboratory results: patent US10493029B2, “Ziyuglycoside II polymer micelle and preparative methods thereof” (SICHUAN INLU WEITE PHARMACEUTICAL TECHNOLOGY CO., LTD., priority 2016, dated 2019)

Tested on: bone marrow suppression induced by cyclophosphamide in KM-mice
Assay: Pharmacodynamic experiment: cyclophosphamide-induced bone marrow suppression, peripheral blood counts
Type: in vivo
Method: 1. Experimental Materials, Reagents, Apparatus
Test drugs were ziyuglycoside II micelles and ziyuglycoside II powder.
Tool drug was cyclophosphamide.
Laboratory animals were KM-mice: 18.5-22.5 g.
Laboratory apparatus: Automatic blood counting analyzer; BS-600L electronic balance: specification: 600 g/0.1 g, Shanghai Yousheng Weighing Apparatus Co. Ltd.
Statistical analysis was performed using SPSS 17.0 software. Data were expressed as mean±standard error (x±S), and one-factor analysis of variance was used among groups. For homogeneity of variance, data between groups were compared by LSD test, while for heterogeneity of variance, data between groups were compared by Tamhane's T2 test.
After all animals were adaptively fed for one week, according to the body weight, animals were randomly divided as blank group; model group; ziyuglycoside II micelle sample groups 1-4 (respectively using micelles prepared in examples 1-4), with a dosage of 2.5 mg·kg^−1, preparation before use; ziyuglycoside II group: powder of ziyuglycoside II raw materials, dissolved in 10% DMSO-normal saline, with a dosage of 2.5 mg·kg^−1, preparation before use. On the first day of experiment, except for blank group, mice in other groups received cyclophosphamide normal saline solution at a dose of 120 mg·kg^−1 by peritoneal injection, and mice in blank group received the same volume of normal saline by peritoneal injection.
From the first day of experiment, each experimental group was given the corresponding drug as the predetermined dosage and administration mode, and mice in blank group and model group were given a same volume of normal saline by injection into the tail vein, for successive 6 days.
On the seventh day of experiment, whole blood was collected from orbit of mice in each experimental group, and placed in 0.5 ml EP tubes containing EDTA anticoagulant agent for test.
White blood cells (WBC), neutrophilic granulocytes (NEUT), red blood cells (RBC), platelets (PLT), and hemoglobin (HGB) in peripheral blood of mice in each experimental group were counted using automatic blood counting instrument.

[1] = cyclophosphamide 120 mg/kg i.p. day 1, drug 2.5 mg/kg for 6 days, blood on day 7, mean±standard error

With C[C@@H]1CC[C@]2(C(=O)O)CC[C@]3(C)C(=CC[C@@H]4[C@@]5(C)CC[C@H](O[C@@H]6OC[C@H](O)[C@H](O)[C@H]6O)C(C)(C)[C@@H]5CC[C@]43C)[C@@H]2[C@]1(C)O [Ziyuglycoside II, 3-O-α-L-arabinosyl-19α-hydroxyurs-12-en-28-oic acid] the “numbers of NEUT and HGB in peripheral blood compared with model group” value (2.5 mg/kg, P<0.05) was “did not show significant difference”, the “numbers of WBC, RBC, and PLT in peripheral blood compared with model group” value (2.5 mg/kg, P<0.05) was “did not show significant difference” and the “HGB in peripheral blood” value [1] was 44.65 ± 7.27 g/L. The “NEUT in peripheral blood” value [1] was 2.47 ± 0.55 ×10^9, the “PLT in peripheral blood” value [1] was 221.18 ± 6.15 ^ ×10^9 and the “RBC in peripheral blood” value [1] was 3.54 ± 0.11 ×10^12. For the same compound, the “WBC in peripheral blood” value [1] was 3.71 ± 0.13 ×10^9.
